{"source": "patent US20240197766A1", "about": "“TREATMENT OF RNA VIRUS INFECTION WITH A CYTIDINE” (The Cleveland Clinic Foundation, priority 2021, published 2024)", "key": {"[1]": {"system": "CMV", "conditions": "case series of renal transplantation patients; cited from earlier work"}, "[2]": {"experiment": "THU clinical pharmacokinetics, oral 750 mg in healthy volunteers", "conditions": "male, human, in vivo"}, "[3]": {"system": "cytidine analog deamination", "experiment": "THU clinical pharmacodynamics: deamination of co-administered cytidine analogs"}, "[4]": {"conditions": "cited from earlier work"}, "[5]": {"system": "serum uridine levels", "experiment": "THU clinical pharmacodynamics: serum uridine and cytidine levels", "procedure": "Volunteers (3 males; 3 females) received a single THU dose of 750 mg 7 days apart, the 1st dose in a fasted state and the 2nd after a standard FDA meal."}, "[6]": {"system": "coronavirus", "format": "cell-based", "conditions": "THU 24 hours at clinically relevant concentrations, human lung epithelial cells, plaque assay and QRT-PCR"}, "[7]": {"conditions": "read-out: routine Cmax; clinical; cited from earlier work"}, "[8]": {"system": "host cell", "conditions": "clinically relevant concentrations, data from Xiong et al.; cited from earlier work"}}, "note": "“And” between values parts separate entries of the source, which are not always exact repeats. Equal values may be shown once. “Also recorded” adds a separate entry of the source. Read-outs that look alike come from different tables or passages of the source.", "data": [{"smiles": "Cc1oncc1C(=O)Nc1ccc(C(F)(F)F)cc1", "note": "[leflunomide]", "values": [{"measurement": "clinical outcome of CMV infection", "setting": "[1]", "value": "cleared virus and/or produced clinical improvement"}]}, {"smiles": "O=C1NC(O)CCN1[C@@H]1O[C@H](CO)[C@@H](O)[C@H]1O", "note": "(stereo partly shown) [THU, tetrahydrouridine]", "values": [{"measurement": "Cmax", "setting": "[2]", "value": "2 µM to 8 µM and 500 ng/mL to 2000 ng/mL"}, {"measurement": "Tmax", "setting": "[2]", "value": "~3", "unit": "h"}, {"measurement": "reduction in cytidine analog deamination", "setting": "[3]", "value": "~90", "unit": "%"}, {"measurement": "administered drug excreted through the kidneys within 24 h", "setting": "[4]; renal excretion, within 24 h", "value": "approximately 50%"}, {"measurement": "elimination within 48 hours", "setting": "[4]; within 48 hours", "value": 100, "unit": "%"}, {"measurement": "decrease of uridine availability to non-dividing cells", "setting": "[5]; inhibition of 2 CDA-mediated uridine supply routes", "value": "≤ 90", "unit": "%"}, {"measurement": "serum cytidine levels", "setting": "[5]; single THU dose of 750 mg", "value": "increasing"}, {"measurement": "decrease in serum uridine levels", "setting": "[5]; single THU dose of 750 mg, fasted and fed states, males and females", "value": "50-80% and 50-90%"}, {"measurement": "reduction of uridine available for systemic salvage", "setting": "[5]; standard, non-toxic doses", "value": "up to 90%"}, {"measurement": "coronavirus (VSV) replication", "setting": "[6]", "value": "inhibited coronavirus replication; also recorded: significantly inhibited"}]}, {"smiles": "C/C(O)=C(\\C#N)C(=O)Nc1ccc(C(F)(F)F)cc1", "note": "[Teriflunomide, teriflunomide]", "values": [{"measurement": "Cmax", "setting": "[7]", "value": "10 to 100", "unit": "µM"}, {"measurement": "host cell cytotoxicity", "setting": "[8]", "value": "minimal"}]}]}
